{"source": "patent US20250213584A1", "about": "“ERCC1-XPF COMPLEX INHIBITOR COMPOUNDS AND THE USE THEREOF IN THE TREATMENT OF CANCER” (FUNDAÇÃO D. ANNA DE SOMMER CHAMPALIMAUD E DR. CARLOS MONTEZ …, priority 2023, published 2025)", "key": {"ERCC1-XPF": {"biological_target": "T1, ERCC1-XPF (Homo sapiens, UniProt Q92889)", "T1 sequence (Q92889 1-916)": "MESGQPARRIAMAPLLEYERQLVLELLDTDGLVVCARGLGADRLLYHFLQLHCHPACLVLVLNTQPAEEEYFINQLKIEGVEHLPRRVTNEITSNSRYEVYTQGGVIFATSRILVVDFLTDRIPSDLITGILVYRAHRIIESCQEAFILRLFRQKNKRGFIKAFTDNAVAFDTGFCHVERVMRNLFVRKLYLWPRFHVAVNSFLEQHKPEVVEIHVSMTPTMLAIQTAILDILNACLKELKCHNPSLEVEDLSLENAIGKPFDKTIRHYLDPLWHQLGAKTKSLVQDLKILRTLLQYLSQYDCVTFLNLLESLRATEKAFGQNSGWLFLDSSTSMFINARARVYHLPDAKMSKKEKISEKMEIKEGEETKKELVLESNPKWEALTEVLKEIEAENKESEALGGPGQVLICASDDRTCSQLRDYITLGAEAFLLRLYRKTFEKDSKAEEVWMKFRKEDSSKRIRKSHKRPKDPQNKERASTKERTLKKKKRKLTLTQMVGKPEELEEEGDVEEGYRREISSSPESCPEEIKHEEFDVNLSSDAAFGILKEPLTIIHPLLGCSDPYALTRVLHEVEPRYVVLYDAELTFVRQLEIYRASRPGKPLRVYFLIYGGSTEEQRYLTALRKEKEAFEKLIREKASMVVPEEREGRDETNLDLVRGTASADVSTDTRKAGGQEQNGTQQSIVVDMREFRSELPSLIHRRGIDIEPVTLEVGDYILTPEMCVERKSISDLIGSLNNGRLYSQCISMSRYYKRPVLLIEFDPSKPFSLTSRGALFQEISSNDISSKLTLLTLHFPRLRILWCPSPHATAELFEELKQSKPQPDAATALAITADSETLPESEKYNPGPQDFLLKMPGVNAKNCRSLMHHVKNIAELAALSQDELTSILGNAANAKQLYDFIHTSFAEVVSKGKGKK", "conditions": "literature; cited from earlier work"}, "H1299 cells [1]": {"system": "H1299 cells", "assay": "Crystal violet (CV) staining assay, cisplatin cytotoxicity", "assay_type": "cell-based, human", "conditions": "72-h incubation", "procedure": "To evaluate the cisplatin cytotoxicity effect in the selected H1299 cell line (highest ERCC1 expression), a concentration-response profile was established resorting to two mechanistically different cell viability assays, the CV staining and the MTS reduction assays (FIG. 9). The IC50 values for cisplatin were also calculated for a 72-h incubation period based on its dose-response profile. The cytotoxicity of cisplatin in H1299 cells was evaluated according to a previously described crystal violet (CV) staining protocol. This assay allows the colorimetric determination of adherent cells by staining their nucleus. First, cells were inoculated at a density of approximately 3×10^3 cells/well in 200 μL of complete culture medium in 96-well plates. After adherence (24 h), culture medium was renewed, and the cells were incubated with a range of 1-30 μM of cisplatin for another 72 h. After incubation, cells were washed with warm PBS to remove non-adherent cells (non-viable cells). The adherent cells were then fixated with ice-cold 96% ethanol for 10 min and stained with 0.1% crystal violet in 10% ethanol for 5 min. […] Absorbance was measured at 595 nm (OD595) using a SPECTROstar OMEGA microplate reader. […] The IC50 values were calculated based on the obtained concentration-response curves using GraphPad Prism® 9.0 (GraphPad Software, Inc., La Jolla, CA, USA)."}, "H1299 cells [2]": {"system": "H1299 cells", "assay": "MTS reduction assay, cisplatin cytotoxicity", "assay_type": "cell-based, human", "procedure": "To evaluate the cisplatin cytotoxicity effect in the selected H1299 cell line (highest ERCC1 expression), a concentration-response profile was established resorting to two mechanistically different cell viability assays, the CV staining and the MTS reduction assays (FIG. 9). The IC50 values for cisplatin were also calculated for a 72-h incubation period based on its dose-response profile. The 3-(4,5-dimethylthiazol-2-yl)-5-(3-carboxymethoxyphenyl)-2-(4-sulfophenyl)-2H-tetrazolium salt (MTS) reduction assay was carried out as a confirmatory assay of cell viability. This methodology is commonly used in in vitro toxicology and is based on the enzymatic reduction of a tetrazolium salt in viable cells by mitochondrial enzymes (NAD-dependent dehydrogenase) with the formation of a colored formazan product. […] H1299 cells were incubated for 2 h30 with the MTS reagent and the absorbance was measured at 490 nm and 690 nm (reference wavelength) using a SPECTROstar OMEGA microplate reader. Absorbance values presented by vehicle-treated control cells corresponded to 100% of cell viability. […] The IC50 was also calculated based on the concentration-response curve using GraphPad Prism® 9.0."}}, "data": [{"molecule": "COc1ccc2nc3cc(Cl)ccc3c(Nc3ccc(O)c(CN4CCN(C)CC4)c3)c2c1", "note": "[F06]", "values": [{"measurement": "disruption of ERCC1-XPF interaction", "setting": "ERCC1-XPF", "value": "ability to disrupt the interaction between ERCC1 and XPF"}]}, {"molecule": "N.N.[Cl][Pt][Cl]", "note": "[cisplatin]", "values": [{"measurement": "IC50", "setting": "H1299 cells [1]", "value": 3, "unit": "µM"}, {"measurement": "IC50", "setting": "H1299 cells [2]; 72-h incubation", "value": 3.7, "unit": "µM"}, {"measurement": "cell death", "setting": "H1299 cells [2]; cisplatin alone at 1 μM, 72 h", "value": "10-15%"}]}]}
